{"source": "paper PMC6645542", "about": "(PLoS ONE, 2019)", "key": {"[1]": {"target": "Thioredoxin glutathione reductase from T. crassiceps (TcTGR) (Taenia crassiceps, UniProt A0ABR4QG96)", "experiment": "GSSG-reductase activity of TGR (NADPH oxidation at 340 nm)", "format": "biochemical", "settings": "for Recovered activity (%): B: TGR incubated with COP for 5 min, then thiol 50 μM added, control = 100%; for inhibition at 200 µM: 200 μM of the compound, 3 min incubation (Fig 1a), read-out: maximal inhibition of GSSG reductase activity of TcTGR; for pIC50: curcumin degradation products, 3 min incubation in TE buffer, 100 μM NADPH, 67 μM GSSG, read-out: IC50, inhibition of GSSG reductase activity of TcTGR", "method": "TGR activity was monitored spectrophotometrically by following the decrease in absorbance at 340 nm (ɛ = 6.22 mM^-1cm^-1) due to its NADPH-dependent ability to reduce GSSG [35, 36]. To determine the inhibitory ability of either curcuminoids, curcumin degradation products or curcumin oxidation products we used the following protocols: a) Curcuminoids. An enzyme aliquot (30 μL) was incubated in the presence of 1 μM NADPH; then, a 1.5 μL aliquot of the above mixture was added to 50 μM of the corresponding curcuminoid solution in TE buffer. At different incubation times, a small aliquot containing both NADPH and GSSG was added to start the reaction in a total volume of 600 μL. The enzyme activity of a reaction mixture prepared in the absence of any curcuminoid was taken as 100% relative activity b) Curcumin degradation products (CDP). The enzyme was treated as above and 1.5 μL aliquot of the mixture was added to the corresponding CDP solution at a selected concentration followed by a 2 min incubation period. Then, both NADPH and GSSG were added to start the reaction. The enzyme activity of a reaction mixture prepared in the absence of any CDP was taken as 100% relative activity. c) Curcumin oxidation products (COP). Curcumin final concentration 50 μM was incubated 15 min in TE buffer. Then, both TGR and the substrates NADPH and GSSG were added to start the reaction. Final concentrations of enzyme, NADPH and GSSG were 13 nM, 100 μM and 70 μM respectively. A unit of enzyme activity is defined as the amount of protein needed to oxidize one μmol NADPH per minute at 25°C."}, "[2]": {"experiment": "Spectrophotometrical analysis of stability (absorbance at 426 nm / absorption spectrum)", "format": "physicochemical", "experimental": "Raúl Enriquez (Instituto de Química, UNAM, México). Curcumin 5 mM was dissolved in DMSO and stored at room temperature. […] The protein concentration of the purified enzyme was determined spectrophotometrically by reading the absorbance at 460 nm (ɛ = 11.3 mM^-1cm^-1) due to its FAD content. The absorption spectrum of curcuminoids (curcumin, DMC and BDMC) and the different curcumin degradation products (CDP) FM, V, VA, F-Ad, 4VG, and FA were recorded in a UV/Vis Beckman DU 730 Spectrophotometer. […] The detection of the curcumin oxidation products (COP) was performed by following the changes in the absorption spectrum immediately after a 100-fold dilution of the curcumin stock solution in TE buffer."}, "[3]": {"parameters": "method as in PMID 25806475", "settings": "cited from earlier work"}}, "note": "pIC50: −log10 of the molar value."}
{"smiles": "O[C@@H](CS)[C@@H](O)CS", "note": "(racemic) [DTT, 1,4-Dithio-DL-threitol, reference compound]", "values": [{"measurement": "Recovered activity (%)", "setting": "[1]", "result": "20.3 ± 1.1", "unit": "%"}]}
{"smiles": "N[C@@H](CCC(=O)N[C@@H](CS)C(=O)NCC(=O)O)C(=O)O", "note": "[GSH, reduced glutathione, reference compound]", "values": [{"measurement": "Recovered activity (%)", "setting": "[1]", "result": "14.7 ± 1.0", "unit": "%"}]}
{"smiles": "COc1cc(/C=C/C(=O)CC(=O)/C=C/c2ccc(O)c(OC)c2)ccc1O", "note": "[curcumin, (1E, 6E)-1,7-bis (4-hydroxy-3-methoxyphenyl)-1,6-heptadiene-3,5-dione]", "values": [{"measurement": "dilution time at which the maximal inhibitory ability was reached", "setting": "[1]; 50 μM diluted in TE buffer in the absence of NADPH (Fig 4a)", "result": 15, "unit": "min"}, {"measurement": "inhibition of the enzyme activity", "setting": "[1]; 50 μM diluted in TE buffer in the presence of 100 μM NADPH (Fig 4b)", "result": "no inhibition"}, {"measurement": "remaining activity at 50 µM", "setting": "[1]; 50 μM diluted in TE buffer without NADPH, after 4 h incubation (Fig 4a grey line), read-out: activity relative to control", "result": 80, "unit": "%"}, {"measurement": "GSSG reductase activity", "setting": "[1]; 50 μM, diluted 30 min in TE buffer before enzyme, 1 min incubation with the enzyme (Fig 3a)", "result": "no GSSG reductase activity was detected"}, {"measurement": "inhibition at 200 µM", "setting": "[1]", "result": 10, "unit": "%"}, {"measurement": "drop in the absorbance at 426 nm", "setting": "[2]; 50 μM in TE buffer pH 7.8, 30 min incubation, in the absence of NADPH", "result": 82, "unit": "%"}, {"measurement": "diminution in the absorbance at 426 nm", "setting": "[2]; 50 μM in TE buffer pH 7.8, 30 min incubation, in the presence of 100 μM NADPH", "result": 25, "unit": "%"}]}
{"smiles": "COc1cc(/C=C/C(O)=C/C(=O)/C=C/c2ccc(O)cc2)ccc1O", "note": "[DMC, demethoxycurcumin]", "values": [{"measurement": "inhibition at 200 µM", "setting": "[1]", "result": 65, "unit": "%"}, {"measurement": "effect of NADPH on the stability", "setting": "[2]; 50 μM in TE buffer, 100 μM NADPH, absorbance at 426 nm", "result": "no effect"}, {"measurement": "time after dilution at which the final product of oxidative transformation was achieved", "setting": "[3]", "result": 48, "unit": "h"}]}
{"smiles": "COc1cc(/C=C/C(=O)O)ccc1O", "note": "[ferulic acid]", "values": [{"measurement": "pIC50", "setting": "[1]", "result": 3.33}]}
{"smiles": "O=C(/C=C/c1ccc(O)cc1)CC(=O)/C=C/c1ccc(O)cc1", "note": "[BDMC, bis-demethoxycurcumin]", "values": [{"measurement": "inhibition of the enzyme activity", "setting": "[1]; 50 μM, diluted 30 min in TE buffer before enzyme, 30 min incubation with TGR (Fig 3)", "result": "no inhibition was observed"}, {"measurement": "inhibition at 200 µM", "setting": "[1]", "result": 100, "unit": "%"}]}
{"smiles": "COc1cc(/C=C/C=O)ccc1O", "note": "[ferulic aldehyde]", "values": [{"measurement": "pIC50", "setting": "[1]", "result": 3.74}]}
